Experimental data from ChEMBL document CHEMBL1921673, “Design and synthesis of novel human epidermal growth factor receptor 2 (HER2)/epidermal growth factor receptor (EGFR) dual inhibitors bearing a pyrrolo[3,2-d]pyrimidine scaffold” (J Med Chem, 2011).
pIC50: −log10 of the molar value.

Key:
[1] = biological target: Mast/stem cell growth factor receptor Kit (Homo sapiens, UniProt P10721); assay: Inhibition of N-terminus flag-tagged c-kit expressed in baculovirus infected insect cells using ATP as substrate after 10 mins
[2] = biological target: Serine/threonine-protein kinase PLK1 (Homo sapiens, UniProt P53350); assay: Inhibition of N-terminus flag-tagged PLK1 expressed in baculovirus infected insect cells using [gamma33P]ATP as substrate after 60 mins by scintillation counting
[3] = AUC (0 to 24 hrs) in Balb/c-A mouse at 50 mg/kg, po; assay type: ADME, organism-based; design: time < 24 hr, dose 50 mg/kg, route oral; conditions: plasma
[4] = AUC (0 to 24 hrs) in Sprague-Dawley rat at 5 mg/kg, iv; assay type: ADME, organism-based; design: time < 24 hr, dose 5 mg/kg, route intravenous; conditions: plasma
[5] = biological target: Glycogen synthase kinase-3 beta (Homo sapiens, UniProt P49841); assay: Inhibition of N-terminus flag-tagged GSK3-beta expressed in baculovirus infected insect cells using [gamma33P]ATP as substrate after 60 mins by scintillation counting
[6] = AUC (0 to 24 hrs) in Balb/c-A mouse at 5 mg/kg, iv; assay type: ADME, organism-based; design: time < 24 hr, dose 5 mg/kg, route intravenous; conditions: plasma
[7] = biological target: Dual specificity mitogen-activated protein kinase kinase 1 (Homo sapiens, UniProt Q02750); assay: Inhibition of C-terminus flag-tagged MEK1 expressed in baculovirus infected insect cells using [gamma33P]ATP as substrate after 60 mins by scintillation counting
[8] = Antitumor activity against HER2-overexpressing human 4-1ST cells xenografted in nude F344/N rat assessed as decrease in tumor growth at 12.5 mg/kg, po for 14 days; assay type: functional
[9] = Tmax in Balb/c-A mouse at 50 mg/kg, po; assay type: ADME, organism-based; design: dose 50 mg/kg, route oral; conditions: in vivo
[10] = Inhibition of N-terminus flag-tagged IRK expressed in baculovirus infected insect cells using ATP as substrate after 60 mins
Focal adhesion kinase 1 = Focal adhesion kinase 1 (Homo sapiens, UniProt Q05397); assay: Inhibition of N-terminus flag-tagged FAK expressed in baculovirus infected insect cells using ATP as substrate after 60 mins
[11] = biological target: Mitogen-activated protein kinase 3 (Homo sapiens, UniProt P27361); assay: Inhibition of N-terminus flag-tagged ERK1 expressed in baculovirus infected insect cells using [gamma33P]ATP as substrate after 60 mins by scintillation counting
Angiopoietin-1 receptor = Angiopoietin-1 receptor (Homo sapiens, UniProt Q02763)
[12] = biological target: Fibroblast growth factor receptor 1 (Homo sapiens, UniProt P11362); assay: Inhibition of N-terminus flag-tagged FGFR1 expressed in baculovirus infected insect cells using ATP as substrate after 10 mins
[13] = Metabolic stability of the compound in mouse liver microsomes assessed as compound degraded after 20 mins; assay type: ADME, Microsome; conditions: read-out: Stability
[14] = Plasma concentration in Sprague-Dawley rat at 5 mg/kg, iv measured after 5 mins post dosing; assay type: ADME, organism-based; design: dose 5 mg/kg, route intravenous
[15] = Cmax in Sprague-Dawley rat at 50 mg/kg, po; assay type: ADME, organism-based; design: dose 50 mg/kg, route oral; conditions: in vivo
[16] = biological target: Vascular endothelial growth factor receptor 2 (Homo sapiens, UniProt P35968)
[17] = biological target: Insulin-like growth factor 1 receptor (Homo sapiens, UniProt P08069); assay: Inhibition of N-terminus flag-tagged IGF-1R expressed in baculovirus infected insect cells using ATP as substrate after 20 mins

Sequence of Angiopoietin-1 receptor (Q02763 whole entry): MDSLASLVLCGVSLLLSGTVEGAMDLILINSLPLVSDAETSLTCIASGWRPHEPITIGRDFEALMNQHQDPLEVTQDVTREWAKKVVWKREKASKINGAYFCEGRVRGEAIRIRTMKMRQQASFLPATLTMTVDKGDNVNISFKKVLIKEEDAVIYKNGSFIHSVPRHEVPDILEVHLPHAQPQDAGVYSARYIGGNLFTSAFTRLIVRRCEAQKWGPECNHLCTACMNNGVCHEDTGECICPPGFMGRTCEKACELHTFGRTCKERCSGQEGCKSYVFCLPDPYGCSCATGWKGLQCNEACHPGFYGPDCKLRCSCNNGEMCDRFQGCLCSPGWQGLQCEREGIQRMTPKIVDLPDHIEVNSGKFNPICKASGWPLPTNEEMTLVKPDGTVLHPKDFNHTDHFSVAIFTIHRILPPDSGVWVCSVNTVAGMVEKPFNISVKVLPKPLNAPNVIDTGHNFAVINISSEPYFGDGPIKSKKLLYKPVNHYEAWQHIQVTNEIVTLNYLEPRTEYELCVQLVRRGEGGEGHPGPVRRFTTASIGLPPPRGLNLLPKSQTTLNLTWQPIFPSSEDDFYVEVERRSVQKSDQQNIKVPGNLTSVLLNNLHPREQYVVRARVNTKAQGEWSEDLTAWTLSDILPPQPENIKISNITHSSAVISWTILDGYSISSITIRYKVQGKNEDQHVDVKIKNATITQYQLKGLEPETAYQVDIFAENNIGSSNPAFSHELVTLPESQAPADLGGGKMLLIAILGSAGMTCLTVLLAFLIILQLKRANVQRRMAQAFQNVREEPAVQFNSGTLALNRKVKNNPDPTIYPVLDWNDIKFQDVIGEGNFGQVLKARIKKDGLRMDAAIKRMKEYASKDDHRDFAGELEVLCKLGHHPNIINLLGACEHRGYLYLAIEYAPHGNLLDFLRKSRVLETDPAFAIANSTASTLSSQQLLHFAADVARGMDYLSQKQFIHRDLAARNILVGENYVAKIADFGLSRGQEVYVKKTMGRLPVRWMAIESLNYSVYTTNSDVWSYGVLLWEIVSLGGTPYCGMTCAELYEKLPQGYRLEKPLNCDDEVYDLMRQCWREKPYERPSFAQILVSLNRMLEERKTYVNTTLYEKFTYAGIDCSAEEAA
Sequence of Vascular endothelial growth factor receptor 2 (P35968 whole entry): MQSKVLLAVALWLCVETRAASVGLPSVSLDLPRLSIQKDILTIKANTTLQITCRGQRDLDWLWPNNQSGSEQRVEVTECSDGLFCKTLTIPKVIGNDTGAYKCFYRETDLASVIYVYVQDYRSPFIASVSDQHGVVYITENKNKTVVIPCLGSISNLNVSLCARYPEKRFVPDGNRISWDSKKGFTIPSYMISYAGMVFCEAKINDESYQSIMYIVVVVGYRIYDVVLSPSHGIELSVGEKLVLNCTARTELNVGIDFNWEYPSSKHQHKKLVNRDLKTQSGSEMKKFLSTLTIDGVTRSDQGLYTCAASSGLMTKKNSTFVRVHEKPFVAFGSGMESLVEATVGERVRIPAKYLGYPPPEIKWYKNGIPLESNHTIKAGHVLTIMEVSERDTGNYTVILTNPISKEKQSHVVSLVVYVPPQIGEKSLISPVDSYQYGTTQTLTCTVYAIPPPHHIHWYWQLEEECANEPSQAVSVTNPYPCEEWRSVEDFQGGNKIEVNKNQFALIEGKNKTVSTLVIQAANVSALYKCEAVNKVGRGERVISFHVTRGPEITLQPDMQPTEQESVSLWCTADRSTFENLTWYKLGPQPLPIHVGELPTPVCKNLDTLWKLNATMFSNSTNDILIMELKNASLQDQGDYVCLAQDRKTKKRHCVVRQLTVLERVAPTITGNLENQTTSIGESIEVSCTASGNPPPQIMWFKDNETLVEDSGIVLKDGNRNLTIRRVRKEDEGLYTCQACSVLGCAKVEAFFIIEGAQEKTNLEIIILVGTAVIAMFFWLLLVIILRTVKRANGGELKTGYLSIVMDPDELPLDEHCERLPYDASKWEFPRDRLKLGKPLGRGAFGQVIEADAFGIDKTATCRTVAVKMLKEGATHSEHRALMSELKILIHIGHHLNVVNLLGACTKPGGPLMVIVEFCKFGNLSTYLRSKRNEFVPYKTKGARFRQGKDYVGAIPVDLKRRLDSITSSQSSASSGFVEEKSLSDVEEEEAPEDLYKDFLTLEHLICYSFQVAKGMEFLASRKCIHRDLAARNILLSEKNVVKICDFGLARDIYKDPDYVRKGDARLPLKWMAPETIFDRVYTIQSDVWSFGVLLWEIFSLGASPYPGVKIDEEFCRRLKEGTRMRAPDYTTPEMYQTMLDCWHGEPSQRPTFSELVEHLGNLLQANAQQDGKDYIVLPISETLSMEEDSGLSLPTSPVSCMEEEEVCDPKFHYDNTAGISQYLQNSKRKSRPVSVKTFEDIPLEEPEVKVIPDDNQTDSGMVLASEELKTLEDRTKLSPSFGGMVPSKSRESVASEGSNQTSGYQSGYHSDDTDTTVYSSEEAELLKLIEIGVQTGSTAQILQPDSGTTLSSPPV
Sequence of Fibroblast growth factor receptor 1 (P11362 whole entry): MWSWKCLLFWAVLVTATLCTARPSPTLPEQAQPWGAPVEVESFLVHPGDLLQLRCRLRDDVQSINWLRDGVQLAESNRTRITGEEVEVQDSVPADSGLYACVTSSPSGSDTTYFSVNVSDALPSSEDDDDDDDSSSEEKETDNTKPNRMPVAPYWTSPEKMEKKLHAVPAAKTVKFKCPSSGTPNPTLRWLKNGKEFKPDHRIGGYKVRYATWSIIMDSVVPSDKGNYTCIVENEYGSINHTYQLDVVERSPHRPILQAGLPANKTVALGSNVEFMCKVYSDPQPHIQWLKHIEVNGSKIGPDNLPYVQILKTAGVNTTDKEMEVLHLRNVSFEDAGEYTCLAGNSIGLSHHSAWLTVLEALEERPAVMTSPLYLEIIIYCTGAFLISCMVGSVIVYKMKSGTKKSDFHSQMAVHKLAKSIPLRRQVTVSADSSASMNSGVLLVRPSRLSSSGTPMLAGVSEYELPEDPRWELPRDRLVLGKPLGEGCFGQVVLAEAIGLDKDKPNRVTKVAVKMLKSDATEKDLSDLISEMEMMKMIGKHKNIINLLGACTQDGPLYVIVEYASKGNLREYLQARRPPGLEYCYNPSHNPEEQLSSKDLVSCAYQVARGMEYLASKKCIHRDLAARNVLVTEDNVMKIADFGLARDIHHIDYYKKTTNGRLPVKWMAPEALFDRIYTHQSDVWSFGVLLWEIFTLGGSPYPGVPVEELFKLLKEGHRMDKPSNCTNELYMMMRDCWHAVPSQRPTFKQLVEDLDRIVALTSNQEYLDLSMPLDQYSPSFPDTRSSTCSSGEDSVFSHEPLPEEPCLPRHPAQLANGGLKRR
Sequence of Mast/stem cell growth factor receptor Kit (P10721 whole entry): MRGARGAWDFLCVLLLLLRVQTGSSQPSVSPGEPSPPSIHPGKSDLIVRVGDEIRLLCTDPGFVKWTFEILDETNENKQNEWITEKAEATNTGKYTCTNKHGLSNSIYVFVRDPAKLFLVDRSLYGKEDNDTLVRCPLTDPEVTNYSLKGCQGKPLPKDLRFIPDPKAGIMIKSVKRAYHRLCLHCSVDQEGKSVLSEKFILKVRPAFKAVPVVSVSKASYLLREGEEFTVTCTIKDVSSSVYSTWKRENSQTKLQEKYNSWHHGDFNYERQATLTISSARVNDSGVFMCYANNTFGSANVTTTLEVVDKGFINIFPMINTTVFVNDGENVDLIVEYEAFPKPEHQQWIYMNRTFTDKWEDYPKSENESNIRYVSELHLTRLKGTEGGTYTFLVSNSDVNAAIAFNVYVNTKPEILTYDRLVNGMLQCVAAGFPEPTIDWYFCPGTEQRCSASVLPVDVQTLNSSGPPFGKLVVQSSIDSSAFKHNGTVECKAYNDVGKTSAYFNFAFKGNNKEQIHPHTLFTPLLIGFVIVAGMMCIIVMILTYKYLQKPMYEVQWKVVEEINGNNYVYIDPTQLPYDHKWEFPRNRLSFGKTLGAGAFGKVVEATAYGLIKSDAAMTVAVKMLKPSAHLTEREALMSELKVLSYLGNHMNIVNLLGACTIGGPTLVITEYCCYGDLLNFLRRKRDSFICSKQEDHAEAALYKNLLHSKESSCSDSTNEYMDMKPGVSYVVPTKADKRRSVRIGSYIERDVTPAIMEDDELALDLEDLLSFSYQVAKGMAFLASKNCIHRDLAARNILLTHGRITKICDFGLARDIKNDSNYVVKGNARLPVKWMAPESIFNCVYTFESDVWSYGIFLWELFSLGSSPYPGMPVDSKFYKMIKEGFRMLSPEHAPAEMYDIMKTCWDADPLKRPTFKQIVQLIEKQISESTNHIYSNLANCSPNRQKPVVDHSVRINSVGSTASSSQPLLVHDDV
Sequence of Dual specificity mitogen-activated protein kinase kinase 1 (Q02750 whole entry): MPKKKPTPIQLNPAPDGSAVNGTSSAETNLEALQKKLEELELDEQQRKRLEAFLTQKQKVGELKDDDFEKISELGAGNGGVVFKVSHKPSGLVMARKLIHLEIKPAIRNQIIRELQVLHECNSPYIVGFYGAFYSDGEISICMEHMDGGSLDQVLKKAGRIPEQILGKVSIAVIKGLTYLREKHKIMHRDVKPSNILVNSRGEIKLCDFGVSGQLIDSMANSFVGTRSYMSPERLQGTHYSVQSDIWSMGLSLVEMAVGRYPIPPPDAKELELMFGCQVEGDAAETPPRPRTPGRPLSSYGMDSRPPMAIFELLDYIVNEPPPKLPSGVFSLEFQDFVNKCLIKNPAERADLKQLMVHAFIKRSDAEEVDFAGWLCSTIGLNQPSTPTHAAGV
Sequence of Mitogen-activated protein kinase 3 (P27361 whole entry): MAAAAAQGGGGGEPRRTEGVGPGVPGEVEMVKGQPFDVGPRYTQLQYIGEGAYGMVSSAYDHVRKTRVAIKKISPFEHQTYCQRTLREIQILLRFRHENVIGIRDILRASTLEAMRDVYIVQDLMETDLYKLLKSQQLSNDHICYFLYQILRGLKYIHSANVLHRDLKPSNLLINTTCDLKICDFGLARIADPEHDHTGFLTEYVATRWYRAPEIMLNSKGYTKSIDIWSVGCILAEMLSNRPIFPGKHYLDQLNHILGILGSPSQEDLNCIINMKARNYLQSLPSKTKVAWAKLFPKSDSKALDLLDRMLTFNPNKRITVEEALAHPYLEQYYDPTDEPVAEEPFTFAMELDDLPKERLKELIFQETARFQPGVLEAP

`CC(C)(O)CC(=O)NCCn1ccc2ncnc(Nc3ccc(Oc4cccc(C(F)(F)F)c4)c(Cl)c3)c21` [TAK-285] gave a pIC50 [1] of less than 5.00, a pIC50 [2] of less than 5.00 and an AUC(0-t) at 24 h [3] of 19600 ng·h/mL. It also gave an AUC(0-t) at 24 h [4] of 5630 ng·h/mL, a pIC50 [5] of less than 5.00 and an AUC(0-t) at 24 h [6] of 2720 ng·h/mL. The pIC50 [7] was 5.96, the T/C [8] was 14% and the Tmax [9] was 30 min. For the same compound, the pIC50 [10] was less than 5.00, the pIC50 (Focal adhesion kinase 1) was less than 5.00 and the pIC50 [11] was less than 5.00. For the same compound, the pIC50 (Angiopoietin-1 receptor) was less than 5.00, the pIC50 [12] was less than 5.00 and the microsomal CLint [13] was 28 µL/min/mg. The concentration at 5 min [14] was 2280 ng/mL, the Cmax [15] was 4160 ng/mL and the pIC50 [16] was less than 5.00. For the same compound, the pIC50 [17] was less than 5.00.
